Test results taken from patent US20120039816A1, “USE OF 7-CHLORO-N,N,5-TRIMETHYL-4-OXO-3-PHENYL-3,5-DIHYDRO-4H-PYRIDAZINO[4,5-B] INDOLE-1-ACETAMIDE AS A BIOMARKER OF PERIPHERAL BENZODIAZEPINE RECEPTOR LEVELS” (SANOFI-AVENTIS, priority 2008, published 2012).

Legend:
[1] = biological target: T1, PBR (peripheral benzodiazepine receptor) (Rattus norvegicus, UniProt P16257); assay: MicroPET imaging in AMPA-lesioned rat model of neuroinflammation; assay type: in vivo, Wistar rats
T1 construct: lesioned striatum of AMPA-injected rats (the region in which PBR expression is induced); from tissue; host or cells: brain (AMPA-lesioned and intact striatum) of Wistar rats, imaged in vivo or cut into 20 µm sections
Method: Wistar rats (average body weight 300 g, centre d'Élevage René Janvier, France) were kept in thermoregulated, humidity controlled facilities under a 12 h/12 h light/dark cycle (light on between 7 h AM and 7 h PM) and were allowed free access to food and water. […] AMPA (0.5 μL) was injected into the right striatum (Bregma+0.7 mm, from sagittal suture: 2.7 mm, depth from brain surface: 5.5 mm).
(§1) MicroPET imaging was performed 7 days post-AMPA injection in rats and in 11-12 month old transgenic mice. In both mice and rats, anaesthesia was induced by isoflurane 5%, and thereafter maintained by 2-2.5% of isoflurane in a mixture of 70%/30% […]. […] Mice were placed on a bed equipped with an anaesthetic mask allowing heating of the air flow and the rectal temperature was monitored using the Homeothermic Blanket Control Unit.
(§2) In rats, radiolabelled compounds and unlabelled ligands were injected in the caudal vein with the use of 24 gauge catheter. Radiolabelled compounds were injected concomitantly at the start of the PET acquisition and unlabelled compounds were injected 20 min after injection of radiotracers. PET data were acquired for 80 min. In mice, radiolabelled compounds were injected in the caudal vein using 28 gauge needles immediately before the PET scan initiation. PET data were acquired for 60 min.
(§3) PET image analysis was performed using ASIPro VM™ (CTI Concorde Microsystems' Analysis Tools and System Setup/Diagnostics Tool) and Brainvisa/Anatomist (http://brainvisa.info/).

PBR [2] = biological target: T2, PBR (Homo sapiens, UniProt P30536); conditions: PET ligand; cited from earlier work
PBR [3] = biological target: T3, PBR (Mus musculus, UniProt P50637); assay: MicroPET imaging in APP×PS1 and PS1 transgenic mice; assay type: in vivo; conditions: for uptake in APP×PS1 vs wild type PS1: whole brain, 11-12 month old mice, PET
T3 construct: from tissue; host or cells: brain of PS1 and APPxPS1 transgenic mice, imaged in vivo at 11-12 months or cut into sections at 20-23 months
Text: Generation and characterization of single PS1M146L (PS1) and double APP751SL×PS1M146L (APP×PS1) transgenic mice were achieved, as described previously (Blanchard, V. et al. (2003) Exp. Neurol. 184: 247-263). In these animals APP is expressed at a high level in all cortical neurons under the control of the Thy-1 promoter. Human PS1 with the M146L mutation is expressed under the control of the HMG-CoA reductase promoter. […] Both single PS1 and double APP×PS1 mice, provided by Sanofi-Aventis, were used for PET imaging at the age of 11-12 months and autoradiography at 20-23 months.
as §1, §2, §3

PBR [4] = biological target: PBR (Rattus norvegicus, UniProt P16257); conditions: excess unlabelled PK11195 (23 μM) or A (22 μM), FIG. 5
PBR [5] = assay: PET imaging in quinolinic acid primate model of neuroinflammation; assay type: in vivo, Cynomolgus macaques (Macaca fascicularis)
Method: Cynomolgus macaques (Macaca fascicularis) weighing 4-5 kg were housed in thermoregulated, humidity controlled facilities under a 12 h/12 h light/dark cycle (light on between 7 h a.m. and 7 h p.m.) and were allowed free access to food and water. Neuroinflammation was induced by local sterotaxic injections of quinolinic acid (quinolinic acid, Sigma, St. Louis, Mo.; dissolved in 0.1 M PBS, pH 7.2) into the primate striatum (1 injection site into caudate and 2 injection sites into the putamen) during two different surgical interventions where quinolinic acid was injected into one hemisphere on day 1 and the second hemisphere 2 weeks or 7 months later (FIGS. 8 and 9). During each surgical session the animals received 60 nmol of quinolinic acid distributed over three different striatal sites, one 5 μL site in the caudate and two 10 μL sites in the putamen using a 10 μL-Hamilton syringe attached to a 26-gauge needle. […] The excitotoxin was injected at a rate of 0.1 μL/min and the injection syringe left in place for an additional 5 min to avoid backflow of the toxin. Throughout the surgery, the primate temperature was maintained normothermic (rectal temperature, 36° C.±0.6° C., mean±SD). After removing the needle, the skin was sutured and the animals were allowed to recover from anesthesia and returned to their cages when fully awake.
Imaging sessions were performed before and at various times after quinolinic acid injection (24 hrs, 48 hrs, 9 days, 16 days and 7 months post lesion).
One hour before PET imaging, animals were anaesthetized by intramuscular injection of a ketamine/xylazine mixture (15 mg/kg/1.5 mg/kg) and intubated. Catheters were then placed in a saphenous vein for radiotracer injection and in a femoral artery for blood sampling. Animals were maintained anaesthetized by an intravenous injection of propofol (Diprivan® 1%; 0.05 mg·kg^−1·min^−1).
To ensure correct positioning of the animal in the apparatus, the animal's head was secured in a home-made stereotactic frame. PET scans were performed using the high-resolution Focus micro-PET (CTI-Siemens, Knoxville, Tenn.), which acquires 95 contiguous planes simultaneously. For attenuation correction, a transmission scan was first performed using a ^68Ge rotating rod source.
as §3

PBR [6] = biological target: T2, PBR; conditions: in vitro and in vivo; cited from earlier work
[7] = Metabolite analysis in rat blood and brain; assay type: in vivo, Wistar rats
Method: A blood sample was collected and plasma isolated by centrifugation (5 min, 3000 rpm). Plasma proteins were precipitated from 400 μL of serum by addition of 400 μL of acetonitrile. After centrifugation (5 min, 3000 rpm), the supernatant was injected onto the HPLC column. Rat brains were removed and hemispheres were separated. Homogenisation by sonication was performed in 1 mL of acetonitrile per hemisphere. After a rapid centrifugation, the supernatant was separated from the pellet and concentrated under reduced pressure before injection onto the HPLC (see radiochemistry section for HPLC conditions).

[8] = systemic, large excess (1 mg/kg), 30 min after radiotracer injection (FIG. 9)

T2 sequence (P30536 whole entry, species assumed): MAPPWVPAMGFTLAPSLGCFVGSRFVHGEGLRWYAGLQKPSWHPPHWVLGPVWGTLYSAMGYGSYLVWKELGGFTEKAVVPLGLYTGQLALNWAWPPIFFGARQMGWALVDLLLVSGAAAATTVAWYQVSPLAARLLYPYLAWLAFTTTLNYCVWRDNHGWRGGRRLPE

SMILES: CC[C@@H](C)N([11CH3])C(=O)c1cc2ccccc2c(-c2ccccc2Cl)n1 [[^11C]PK11195, (R)—N—[^11C]Methyl-N-(1-methylpropyl)-1-(2-chlorophenyl)isoquinoline-3-carboxamide]
- R1 ([1]; AMPA-injected rats, PET): 1.10±0.05
- binding potential (BP) ([1]; AMPA-injected rats, PET): 0.66±0.15
- brain uptake (PBR [2]): relatively low brain uptake
- non-specific binding (PBR [2]): high non-specific binding
- signal to noise ratio (PBR [2]): poor signal to noise ratio
- uptake in APP×PS1 vs wild type PS1 (PBR [3]): not significantly higher

SMILES: CCC(C)N(C)C(=O)c1cc2ccccc2c(-c2ccccc2Cl)n1 (stereo not drawn) [PK11195]
- effect of excess unlabelled ligand on ipsilateral to contralateral ratio of [^11C]-A binding (PBR [4]): abolished
- effect of unlabelled compound on [^11C]-A binding in the controlateral side ([1]; 1 mg/kg i.v., 20 min post [^11C]-A injection): small increase
- effect of unlabelled compound on brain uptake of [^11C]-A in lesioned striatum ([1]; 1 mg/kg i.v., 20 min post [^11C]-A injection (FIG. 3, 4)): significantly reduced
- effect of excess unlabelled compound on [^11C]-A binding in lesioned striatum (PBR [5]; [8]): specific displacement
- effect of excess unlabelled compound on [^11C]-A binding in non-lesioned control brain regions (PBR [5]; [8]): no noticeable changes

SMILES: CN(C)C(=O)Cc1nn(-c2ccccc2)c(=O)c2c1c1ccc(Cl)cc1n2C [A, 7-chloro-N,N,5-trimethyl-4-oxo-3-phenyl-3,5-dihydro-4H-pyridazino[4,5-b]indole-1-acetamide]
- affinity for the PBR (PBR [6]): high affinity

SMILES: CN(C)C(=O)Cc1nn(-c2ccccc2)c(=O)c2c1c1ccc(Cl)cc1n2[11CH3] [[^11C]-A, 7-Chloro-N,N-dimethyl-5-[^11C]methyl-4-oxo-3-phenyl-3,5-dihydro-4H-pyridazino[4,5-b]indole-1-acetamide]
- uptake in lesioned striatum (PBR [5]; 7 months after excitotoxin injection, right striatum): returned to baseline levels
- uptake in lesioned right striatum compared to contralateral non-injected striatum and control brain regions (cerebellum, prefrontal cortex) (PBR [5]; 24 hrs after excitotoxin injection (FIG. 8)): significantly higher
- increase in uptake in lesioned striatum (PBR [5]; 48 hrs after excitotoxin injection, left hemisphere): could still be visualized
- time window of increased uptake after lesion (PBR [5]; early phase of neuroinflammation (FIG. 9)): can be visualised from 24 hrs up to 16 days
- uptake in contralateral non-injected striatum (PBR [5]; same level as brain regions of a non-injected primate (FIG. 8)): remained stable
- uptake in whole brain (cerebellum excluded) compared to [^11C]PK11195 (PBR [3]; APP×PS1 and wild type PS1 transgenic mice, 11-12 months (FIG. 6)): higher
- uptake in APP×PS1 vs wild type PS1 (PBR [3]): not significantly higher
- metabolites present in brain ([7]; rats, 10, 20 and 30 min after [^11C]-A injection (FIG. 10)): essentially detected the parent compound only
- metabolites present in blood and plasma ([7]; rats, 10 and 20 min after [^11C]-A injection (FIG. 10)): essentially detected the parent compound only
